Experimental data: patent US12180193B2, “Accelerating fibrosarcoma protein degrading compounds and associated methods of use” (Arvinas Operations, Inc., priority 2020, dated 2024)

Legend:
BRAF V600E = target: T1, BRAF V600E (Homo sapiens, UniProt P15056, V600E); assay: Cellular assay of target protein degradation, T-Rex 293 cells stably transfected with HA-BRAF_V600E (HA immunofluorescence, high content imaging); assay type: cell-based; conditions: T-Rex 293 HA-BRAF V600E; for DC50: half maximal degradation, read-out: BRaf V600E DC50; for Dmax: maximum degradation observed
T1 construct: expressed in transfected cells
Procedure, shortened: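 Degradation of the HA-tagged construct is measured after 24 h treatment at 37 °C across 1 μM to 0.1 nM in 0.1% DMSO, in doxycycline-induced (1 ng/mL) cells. DC50 and Dmax come from HA fluorescence imaging.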

BRAF G466V = target: T2, BRAF G466V (Homo sapiens, UniProt P15056, G466V); assay: Cellular assay of target protein degradation, T-Rex 293 cells stably transfected with HA-BRAF G466V (HA immunofluorescence, high content imaging); assay type: cell-based; conditions: T-Rex 293 HA-BRAF G466V; for DC50: half maximal degradation, read-out: BRaf G466V DC50; for Dmax: maximum degradation observed
T2 construct: expressed in transfected cells
Procedure, shortened: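 Dose range spans 30 nM to 3 pM (0.1% DMSO) over 24 hours at 37° C, in cells induced with 0.75 ng/mL doxycycline. Fixed cells are probed with anti-HA antibody overnight at 4° C, then imaged; half-maximal degradation and maximum degradation are derived.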

T2 sequence (P15056 whole entry G466V): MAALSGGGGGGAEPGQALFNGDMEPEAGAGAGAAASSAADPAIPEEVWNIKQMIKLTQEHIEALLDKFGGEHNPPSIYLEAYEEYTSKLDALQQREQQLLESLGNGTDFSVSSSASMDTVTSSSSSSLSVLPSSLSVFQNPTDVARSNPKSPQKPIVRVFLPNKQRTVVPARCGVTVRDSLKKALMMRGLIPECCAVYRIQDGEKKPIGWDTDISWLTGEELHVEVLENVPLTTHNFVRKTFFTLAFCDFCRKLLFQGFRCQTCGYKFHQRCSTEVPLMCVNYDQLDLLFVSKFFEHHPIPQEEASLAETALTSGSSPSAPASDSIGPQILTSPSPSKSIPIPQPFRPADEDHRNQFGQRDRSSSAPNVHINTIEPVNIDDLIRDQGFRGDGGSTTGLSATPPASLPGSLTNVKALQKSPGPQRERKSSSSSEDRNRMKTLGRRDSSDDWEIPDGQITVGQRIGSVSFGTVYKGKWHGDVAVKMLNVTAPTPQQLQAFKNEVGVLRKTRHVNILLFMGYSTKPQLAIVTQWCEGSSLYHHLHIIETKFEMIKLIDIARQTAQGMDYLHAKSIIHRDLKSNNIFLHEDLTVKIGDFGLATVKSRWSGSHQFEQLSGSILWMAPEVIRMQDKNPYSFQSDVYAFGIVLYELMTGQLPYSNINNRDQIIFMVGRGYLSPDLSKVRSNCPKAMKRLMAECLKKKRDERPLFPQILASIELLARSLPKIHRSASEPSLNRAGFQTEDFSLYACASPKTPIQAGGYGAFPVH
T1 sequence (P15056 whole entry V600E): as the sequence (P15056 whole entry G466V) above, with V466G, V600E counted along it

Row | DC50 (BRAF V600E) | Dmax (BRAF V600E) | DC50 (BRAF G466V) | Dmax (BRAF G466V) | Structure (SMILES)
1 | 5 to 50 nM | 35 to 70% | 1 to 10 nM | 35 to 70% | O=C1CCC(N2Cc3cc(C[C@H](O)CN4CC5(C4)CN(c4ccc(-c6cnc7[nH]cc(C(=O)c8c(F)ccc(NS(=O)(=O)N9CC[C@@H](F)C9)c8F)c7c6)cc4)C5)ccc3C2=O)C(=O)N1 (stereo partly drawn) [Compound 130, (3R)-N-{3-[5-(4-{6-[(2S)-3-[2-(2,6-dioxopiperidin-3-yl)-1-oxo-2,3-dihydro-1H-isoindol-5-yl]-2-hydroxypropyl]-2,6-diazaspiro[3.3]heptan-2-yl}phenyl)-1H-pyrrolo[2,3-b]pyridine-3-carbonyl]-2,4-difluorophenyl}-3-fluoropyrrolidine-1-sulfonamide]
2 | 5 to 50 nM | 35 to 70% | > 30 nM | – | O=C1CC[C@H](N2Cc3cc(CN4C[C@@H]5CN(c6ccc(-c7cnc8[nH]cc(C(=O)c9c(F)ccc(NS(=O)(=O)N%10CC[C@@H](F)C%10)c9F)c8c7)cc6)C[C@@H]5C4)ccc3C2=O)C(=O)N1 [Compound 76, (3R)-N-[3-(5-{4-[(3aR,6aS)-5-({2-[(3S)-2,6-dioxopiperidin-3-yl]-1-oxo-2,3-dihydro-1H-isoindol-5-yl}methyl)-octahydropyrrolo[3,4-c]pyrrol-2-yl]phenyl}-1H-pyrrolo[2,3-b]pyridine-3-carbonyl)-2,4-difluorophenyl]-3-fluoropyrrolidine-1-sulfonamide]
3 | 50 to 500 nM | < 35% | 1 to 10 nM | 35 to 70% | C[C@H]1CC[C@H](C)N1S(=O)(=O)Nc1ccc(F)c(C(=O)c2c[nH]c3ncc(-c4ccc(N5CCC(CN6CCC(c7ccc8c(c7)CN(C7CCC(=O)NC7=O)C8=O)CC6)CC5)cc4)cc23)c1F (stereo partly drawn) [Compound 263, (2S,5S)-N-[3-(5-{4-[4-({4-[2-(2,6-dioxopiperidin-3-yl)-1-oxo-2,3-dihydro-1H-isoindol-5-yl]piperidin-1-yl}methyl)piperidin-1-yl]phenyl}-1H-pyrrolo[2,3-b]pyridine-3-carbonyl)-2,4-difluorophenyl]-2,5-dimethylpyrrolidine-1-sulfonamide]
4 | 50 to 500 nM | 35 to 70% | 1 to 10 nM | 35 to 70% | C[C@H](c1ncc(-c2cnc3[nH]cc(C(=O)c4c(F)ccc(NS(=O)(=O)N5CC[C@@H](F)C5)c4F)c3c2)cn1)N1CCN(CC2CCN(c3ccc4c(c3)CN([C@H]3CCC(=O)NC3=O)C4=O)CC2)CC1 [Compound 290, (3R)-N-[3-(5-{2-[(1R)-1-{4-[(1-{2-[(3S)-2,6-dioxopiperidin-3-yl]-1-oxo-2,3-dihydro-1H-isoindol-5-yl}piperidin-4-yl)methyl]piperazin-1-yl}ethyl]pyrimidin-5-yl}-1H-pyrrolo[2,3-b]pyridine-3-carbonyl)-2,4-difluorophenyl]-3-fluoropyrrolidine-1-sulfonamide]
5 | 5 to 50 nM | 35 to 70% | < 1 nM | > 70% | C[C@@H]1CN(c2ccc(-c3cnc4[nH]cc(C(=O)c5c(F)ccc(NS(=O)(=O)N6CC[C@@H](F)C6)c5F)c4c3)cc2)C[C@H](C)N1CC1CN(c2ccc3c(c2)CN(C2CCC(=O)NC2=O)C3=O)C1 (stereo partly drawn) [Compound 53, (3R)-N-[3-(5-{4-[(3R,5S)-4-({1-[2-(2,6-dioxopiperidin-3-yl)-1-oxo-2,3-dihydro-1H-isoindol-5-yl]azetidin-3-yl}methyl)-3,5-dimethylpiperazin-1-yl]phenyl}-1H-pyrrolo[2,3-b]pyridine-3-carbonyl)-2,4-difluorophenyl]-3-fluoropyrrolidine-1-sulfonamide]
6 | > 500 nM | – | > 30 nM | – | O=C1CCC(N2Cc3cc(N4CC(C5CN(c6ccc(-c7cnc8[nH]cc(C(=O)c9c(F)ccc(NS(=O)(=O)N%10CC[C@@H](F)C%10)c9F)c8c7)cc6)C5)C4)ccc3C2=O)C(=O)N1 (stereo partly drawn) [Compound 159, (3R)-N-{3-[5-(4-{1′-[2-(2,6-dioxopiperidin-3-yl)-1-oxo-2,3-dihydro-1H-isoindol-5-yl]-[3,3′-biazetidin]-1-yl}phenyl)-1H-pyrrolo[2,3-b]pyridine-3-carbonyl]-2,4-difluorophenyl}-3-fluoropyrrolidine-1-sulfonamide]
7 | 5 to 50 nM | 35 to 70% | 1 to 10 nM | > 70% | O=C1CC[C@@H](N2Cc3cc(C[C@@H](O)CN4CCN(c5ccc(-c6cnc7[nH]cc(C(=O)c8c(F)ccc(NS(=O)(=O)N9CC[C@@H](F)C9)c8F)c7c6)cc5)CC4)ccc3C2=O)C(=O)N1 [Compound 73, (3R)-N-{3-[5-(4-{4-[(2R)-3-{2-[(3R)-2,6-dioxopiperidin-3-yl]-1-oxo-2,3-dihydro-1H-isoindol-5-yl}-2-hydroxypropyl]piperazin-1-yl}phenyl)-1H-pyrrolo[2,3-b]pyridine-3-carbonyl]-2,4-difluorophenyl}-3-fluoropyrrolidine-1-sulfonamide]
8 | 5 to 50 nM | 35 to 70% | 1 to 10 nM | > 70% | O=C1CC[C@H](N2Cc3cc(CC[C@H](O)CN4CC5(C4)CN(c4ccc(-c6cnc7[nH]cc(C(=O)c8c(F)ccc(NS(=O)(=O)N9CC[C@@H](F)C9)c8F)c7c6)cc4)C5)ccc3C2=O)C(=O)N1 [Compound 172, (3R)-N-{3-[5-(4-{6-[(2S)-4-{2-[(3S)-2,6-dioxopiperidin-3-yl]-1-oxo-2,3-dihydro-1H-isoindol-5-yl}-2-hydroxybutyl]-2,6-diazaspiro[3.3]heptan-2-yl}phenyl)-1H-pyrrolo[2,3-b]pyridine-3-carbonyl]-2,4-difluorophenyl}-3-fluoropyrrolidine-1-sulfonamide]
9 | < 5 nM | 35 to 70% | < 1 nM | 35 to 70% | O=C1CC[C@H](N2Cc3cc(N4CCC(CN5CCC6(CCN(c7ccc(-c8cnc9[nH]cc(C(=O)c%10c(F)ccc(NS(=O)(=O)N%11CC[C@@H](F)C%11)c%10F)c9c8)cc7F)CC6)C5)CC4)ccc3C2=O)C(=O)N1 [Compound 258, (3R)-N-{3-[5-(4-{2-[(1-{2-[(3S)-2,6-dioxopiperidin-3-yl]-1-oxo-2,3-dihydro-1H-isoindol-5-yl}piperidin-4-yl)methyl]-2,8-diazaspiro[4.5]decan-8-yl}-3-fluorophenyl)-1H-pyrrolo[2,3-b]pyridine-3-carbonyl]-2,4-difluorophenyl}-3-fluoropyrrolidine-1-sulfonamide]
10 | 5 to 50 nM | 35 to 70% | 1 to 10 nM | > 70% | O=C1CCC(N2Cc3cc(N4CCC(O)(CN5CC6(C5)CN(c5ccc(-c7cnc8[nH]cc(C(=O)c9c(F)ccc(NS(=O)(=O)N%10CC[C@@H](F)C%10)c9F)c8c7)cc5)C6)CC4)ccc3C2=O)C(=O)N1 (stereo partly drawn) [Compound 142, (3R)—N-[3-[5-[4-[6-[[1-[2-(2,6-dioxo-3-piperidyl)-1-oxo-isoindolin-5-yl]-4-hydroxy-4-piperidyl]methyl]-2,6-diazaspiro[3.3]heptan-2-yl]phenyl]-1H-pyrrolo[2,3-b]pyridine-3-carbonyl]-2,4-difluoro-phenyl]-3-fluoro-pyrrolidine-1-sulfonamide]
11 | 5 to 50 nM | < 35% | 1 to 10 nM | 35 to 70% | O=C1CCC(N2Cc3cc(N4CCN(c5cc(N6CCN(c7ccc(-c8cnc9[nH]cc(C(=O)c%10c(F)ccc(NS(=O)(=O)N%11CC[C@@H](F)C%11)c%10F)c9c8)cc7)CC6)ncn5)CC4)ccc3C2=O)C(=O)N1 (stereo partly drawn) [Compound 115, (3R)-N-[3-(5-{4-[4-(6-{4-[2-(2,6-dioxopiperidin-3-yl)-1-oxo-2,3-dihydro-1H-isoindol-5-yl]piperazin-1-yl}pyrimidin-4-yl)piperazin-1-yl]phenyl}-1H-pyrrolo[2,3-b]pyridine-3-carbonyl)-2,4-difluorophenyl]-3-fluoropyrrolidine-1-sulfonamide]
12 | 5 to 50 nM | 35 to 70% | 1 to 10 nM | 35 to 70% | COc1cc(OCCCCN2CCN(c3ccc(-c4cnc5[nH]cc(C(=O)c6c(F)ccc(NS(=O)(=O)N7CC[C@@H](F)C7)c6F)c5c4)cc3)CC2)cc2c1C(=O)N(C1CCC(=O)NC1=O)C2 (stereo partly drawn) [Compound 331, (3R)-N-[3-(5-{4-[4-(4-{[2-(2,6-dioxopiperidin-3-yl)-7-methoxy-1-oxo-2,3-dihydro-1H-isoindol-5-yl]oxy}butyl)piperazin-1-yl]phenyl}-1H-pyrrolo[2,3-b]pyridine-3-carbonyl)-2,4-difluorophenyl]-3-fluoropyrrolidine-1-sulfonamide]
13 | 5 to 50 nM | 35 to 70% | 1 to 10 nM | > 70% | O=C1CC[C@@H](N2Cc3cc(CC[C@@H](O)CN4CC5(C4)CN(c4ccc(-c6cnc7[nH]cc(C(=O)c8c(F)ccc(NS(=O)(=O)N9CC[C@@H](F)C9)c8F)c7c6)cc4)C5)ccc3C2=O)C(=O)N1 [Compound 328, (3R)-N-{3-[5-(4-{6-[(2R)-4-{2-[(3R)-2,6-dioxopiperidin-3-yl]-1-oxo-2,3-dihydro-1H-isoindol-5-yl}-2-hydroxybutyl]-2,6-diazaspiro[3.3]heptan-2-yl}phenyl)-1H-pyrrolo[2,3-b]pyridine-3-carbonyl]-2,4-difluorophenyl}-3-fluoropyrrolidine-1-sulfonamide]
14 | 50 to 500 nM | 35 to 70% | 1 to 10 nM | > 70% | O=C1CC[C@H](N2Cc3cc(C4CCN(CC5CCN(c6ccc(-c7cnc8[nH]cc(C(=O)c9c(F)ccc(NS(=O)(=O)CCO)c9F)c8c7)cc6)CC5)CC4)ccc3C2=O)C(=O)N1 [Compound 282, N-{3-[5-(4-{4-[(4-{2-[(3S)-2,6-dioxopiperidin-3-yl]-1-oxo-2,3-dihydro-1H-isoindol-5-yl}piperidin-1-yl)methyl]piperidin-1-yl}phenyl)-1H-pyrrolo[2,3-b]pyridine-3-carbonyl]-2,4-difluorophenyl}-2-hydroxyethane-1-sulfonamide]
